Values of other authors, collected in US10874768B2, “Drug eluting medical device” (priority 2017, dated 2020).

Settings: human, 3 patients, 180 mg/m^2 infusion over 3 hours

- Cmax: 5.23 µM
SMILES: CC(=O)O[C@H]1C(=O)[C@@]2(C)[C@H]([C@H](OC(=O)c3ccccc3)[C@]3(O)C[C@H](OC(=O)[C@H](O)[C@@H](NC(=O)c4ccccc4)c4ccccc4)C(C)=C1C3(C)C)[C@]1(OC(C)=O)CO[C@@H]1C[C@@H]2O [paclitaxel]
